From PMC6669322, “Small Molecule Binding to Alzheimer Risk Factor CD33 Promotes Aβ Phagocytosis” (iScience, 2019)

Biological target: CD33 R119A (Homo sapiens, UniProt P20138, R119A)
Assay: surface plasmon resonance (SPR), CD33 R119A mutant
Assay type: binding
Set-up: DNA encoding D18 to H143 of human CD33; octa-histidine tag with TEV protease cleavage site (N); made in house; host or cells: E. coli BL21* (the general protein production text; the R119A protein is not described on its own)
Conditions: P22 as analyte, captured CD33 R119A
Source text: We next performed surface plasmon resonance (SPR) measurements on P22 binding to CD33 wild-type, and selected mutants, to obtain detailed kinetic data (see Transparent Methods). The CD33 V-set domain has a free cysteine residue (C36), which caused anomalous results in some of our SPR experiments due to disulfide-linked oligomers forming in solution.
P22 (β-D-Glucopyranoside, 2-aminoethyl O-[N-[2-(4-cyclohexyl-1H-1,2,3-triazol-1-yl)acetyl]-9-deoxy-9-[(4-hydroxy-3,5-dimethylbenzoyl)amino]-α-neuraminosyl] (2→6)-O-β-D-galactopyranosyl-(1→4)-; CAS registry number [1809735-27-0]) was synthesized as described by Paulson and co-workers (Rillahan et al., 2014). Biotinylated P22 (Figure S1C) was prepared by treatment of a solution of P22 (12 mg, 0.012 mmol) in dimethylformamide (1 mL), with DIPEA (8.6 µL, […]) followed by addition of (+)- biotin N-hydroxysuccinimide ester (4.2 mg, 0.012 mmol), the resulting reaction mixture was then stirred for 2 h at RT. After which the reaction mixture was concentrated in vacuo and purified by reverse phase, performed via preparative HPLC (Stationary phase: RP XBridge Prep C18 OBD- 5µm,19x150mm, Mobile phase: 0.25% NH4HCO3 solution in water, CH3CN) to afford Biotin-P22 (9 mg, yield 60.9%). […]

CD33 R119A, sequence (P20138 18-143 R119A): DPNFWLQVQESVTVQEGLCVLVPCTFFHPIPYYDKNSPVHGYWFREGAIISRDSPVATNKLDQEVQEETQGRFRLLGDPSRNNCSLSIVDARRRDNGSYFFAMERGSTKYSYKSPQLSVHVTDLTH

- binding observed by SPR: no binding
SMILES: Cc1cc(C(=O)NC[C@@H](O)[C@@H](O)[C@@H]2O[C@@](OC[C@H]3O[C@@H](O[C@H]4[C@H](O)[C@@H](O)[C@H](OCCN)O[C@@H]4CO)[C@H](O)[C@@H](O)[C@H]3O)(C(=O)O)C[C@H](O)[C@H]2NC(=O)Cn2cc(C3CCCCC3)nn2)cc(C)c1O [P22, β-D-Glucopyranoside, 2-aminoethyl O-[N-[2-(4-cyclohexyl-1H-1,2,3-triazol-1-yl)acetyl]-9-deoxy-9-[(4-hydroxy-3,5-dimethylbenzoyl)amino]-α-neuraminosyl] (2→6)-O-β-D-galactopyranosyl-(1→4)-]
